Assay results as given in article PMC7007416 (Analytical and Bioanalytical Chemistry, 2019).

How the values were obtained:
[1] = system: monolayer of Caco-2/HT29-MTX cells; experiment: Lucifer yellow cell barrier integrity test; assay type: in vitro ADME, human; conditions: 500 μg/mL apical, 30 min, after permeability experiments (day 21); average
Protocol: Barrier integrity was evaluated similar to the study of Hubatsch et al., and cells were cultured on a Transwell membrane for 21 days and subsequently stained for tight junction protein ZO-1 and the cell nuclei. For this, the cells were washed with PBS and fixed with 4% paraformaldehyde (w/v) for 15 min. Cells were permeabilized with 0.25% Triton X-100 (v/v) and blocked with 1% BSA (w/v). The cells were then incubated with the conjugated antibody ZO-1/TJP1-Alexa Fluor 594 for 45 min (10 μg/mL). Subsequently, DAPI was used to stain the nuclei for 10 min (5 μg/mL). Between incubations, cells were washed with PBS three times. Cells were mounted in a 120-μm spacer (Sigma-Aldrich) on a microscope slide (Thermo Scientific) with ProLong Diamond Antifade Mountant. Slides were then examined using a Zeiss (Jena, Germany) LSM 510 META confocal microscope. Samples were excited with 405-nm and 543-nm lasers, and the pinholes were in the range of 90–94 μm at a magnification of × 40. Cell layer integrity was also evaluated using the transport marker Lucifer yellow. […] Cell culture medium was collected from the apical and basolateral sides at t = 0 and t = 30 min and analysed for fluorescence at 458 nm/530 nm using a Bio-Tek Synergy HT Multi-Mode microplate reader. […]

[2] = system: Caco-2 and HT29-MTX-E12 cells (ratio 3:1)
Protocol: With the WST-1 assay, mitochondrial activity of the cell is measured by the conversion of WST-1 into formazan dye by mitochondrial dehydrogenase enzymes. The assay is performed as follows: Caco-2 and HT29-MTX-E12 cells (ratio 3:1) were seeded in Greiner Bio-One (Alphen aan den Rijn, The Netherlands) flat-bottom 96-well plates at a concentration of 1 × 10^5 cells/mL in cell culture medium (100 μL/well). Plates were incubated for 24 h at 37 °C under 5% CO2. […] Then, the exposure medium containing (dilutions of) the compounds of interest was discarded and the cells were washed with pre-warmed HBSS. Subsequently, WST-1 reagent (in cell culture medium without phenol red) was added to the cells (1:10, 100 μL/well). After 1.5 h of incubation at 37 °C, the absorbance of each well was measured at 440 nm using a Bio-Tek (Winooski, VT, USA) Synergy HT Multi-Mode microplate reader.

[3] = system: monolayer of Caco-2/HT29-MTX cells; experiment: Permeability in dynamic flow-through Transwell system, offline analysis; conditions: dynamic vs static, ergotamin(in)e 10 μg/mL
Protocol: (§1) The human colonic adenocarcinoma Caco-2 cell line was obtained from the American Type Culture Collection (ATCC, Manassas, VA, USA), and the human colon adenocarcinoma mucus-secreting HT29-MTX-E12 cell line was obtained from the European Collection of Authenticated Cell Cultures (ECACC, Salisbury, UK). Caco-2 cells were used at passage numbers 29–40, and HT29-MTX-E12 cells were used at passage numbers 52–70 for all experiments. Cells were cultured in DMEM containing 10% FBS, 1% NEAA and 1% penicillin-streptomycin and maintained at 37 °C in a 5% CO2-humidified air atmosphere and subcultured every 2 days to 3 days similar to the study of Abdelkhaliq et al.. For permeability experiments, cells were seeded at a density of 40,000 cells/cm^2 on a polycarbonate Transwell insert (area 0.6 cm^2, 0.4 μm pore size; Millipore) as follows: Caco-2 and HT29-MTX-E12 cells were seeded in a 3:1 ratio on the apical side of the Transwell system and allowed to attach for 24 h. After 24 h, cell culture medium was refreshed every 2–3 days and Transwell systems were used for permeability experiments following 21 days of culturing.
(§2) HEPES is added because the experiments with the flow-through Transwell systems are performed outside of a CO2-controlled incubator, and for the sake of comparability, it is added to the static Transwell systems as well. […]

[4] = system: monolayer of Caco-2/HT29-MTX cells; experiment: Permeability in static Transwell system; conditions: static experiments, ergotamin(in)e 10 μg/mL apical
Protocol: as §1, §2

[5] = Permeability in static Transwell system; conditions: human
Protocol: as §1, §2

[6] = system: monolayer of Caco-2/HT29-MTX cells
Protocol: as §1

## Lucifer yellow
[1]
  Lucifer yellow permeability (percentage of the apical concentration): 0.18% ± 0.06

## Triton X-100
[2]; positive control, Triton X-100 0.25% v/v, percentage of negative control
  cell viability: 0.4% ± 0.3

## CN1C[C@@H](C(=O)N[C@]2(C)O[C@@]3(O)[C@@H]4CCCN4C(=O)[C@H](Cc4ccccc4)N3C2=O)C=C2c3cccc4[nH]cc(c34)C[C@H]21 [ergotaminine]
[3]
  permeability, times lower in the dynamic experiments compared to the static experiments: 5 times
[4]
  apparent permeability coefficient: 50.2 ± 5.8 × 10^−6 cm/s

## CN1C[C@H](C(=O)N[C@]2(C)O[C@@]3(O)[C@@H]4CCCN4C(=O)[C@H](Cc4ccccc4)N3C2=O)C=C2c3cccc4[nH]cc(c34)C[C@H]21 [ergotamine]
[5]
  Papp at 180 min, 10 μg/mL: 8.6 ± 1.2 ×10⁻⁶ cm/s

## CN1C2CCCC1CC(NC(=O)c1nn(C)c3ccccc13)C2 (centres unmarked) [granisetron, Granisetron]
[6]
  cell-induced product formation on the basolateral side: no cell-induced products were detected
[6]; human, 3 h
  translocated across the in vitro intestinal barrier, cumulative % of the apical concentration: 13.1%
[2]; human, 24 h
  non-toxic concentration: 10 µg/mL
